How the values were obtained:
[1] = target: T1, Muscarinic acetylcholine receptor M2 (Homo sapiens) (UniProt P08172); test: M2 (h) CEREP ligand profiling; conditions: Compound concentration 10.0 uM
T1 sequence (whole entry): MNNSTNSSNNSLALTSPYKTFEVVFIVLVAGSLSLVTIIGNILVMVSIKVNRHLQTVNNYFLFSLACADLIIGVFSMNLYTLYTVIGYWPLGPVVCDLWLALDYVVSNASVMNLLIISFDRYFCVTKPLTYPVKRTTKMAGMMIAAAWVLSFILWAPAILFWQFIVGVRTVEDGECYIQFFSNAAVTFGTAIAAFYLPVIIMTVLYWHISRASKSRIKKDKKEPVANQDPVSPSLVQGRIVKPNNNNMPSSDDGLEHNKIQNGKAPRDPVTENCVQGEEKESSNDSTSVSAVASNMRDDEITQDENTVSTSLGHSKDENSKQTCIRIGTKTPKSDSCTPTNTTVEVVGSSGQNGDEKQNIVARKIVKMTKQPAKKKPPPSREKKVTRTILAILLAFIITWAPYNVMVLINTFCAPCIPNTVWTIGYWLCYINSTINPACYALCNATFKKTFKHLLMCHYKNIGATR

[2] = target: Galanin receptor type 1 (Homo sapiens) (UniProt P47211); test: GAL1 (h) CEREP ligand profiling; conditions: Compound concentration 10.0 uM
Sequence of Galanin receptor type 1 (Homo sapiens) (P47211 whole entry): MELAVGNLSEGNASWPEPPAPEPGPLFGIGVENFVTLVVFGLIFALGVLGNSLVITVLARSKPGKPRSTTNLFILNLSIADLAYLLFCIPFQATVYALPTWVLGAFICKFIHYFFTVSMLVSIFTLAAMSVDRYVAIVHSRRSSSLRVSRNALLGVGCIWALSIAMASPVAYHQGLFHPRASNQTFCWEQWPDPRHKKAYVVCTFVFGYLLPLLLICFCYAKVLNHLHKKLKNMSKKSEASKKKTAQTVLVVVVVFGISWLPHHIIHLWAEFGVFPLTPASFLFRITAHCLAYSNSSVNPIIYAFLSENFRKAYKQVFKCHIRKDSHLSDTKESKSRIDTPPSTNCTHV

[3] = target: Melanocortin receptor 4 (Homo sapiens) (UniProt P32245); test: MC4 (h) CEREP ligand profiling; conditions: Compound concentration 10.0 uM
[4] = target: B2 bradykinin receptor (Homo sapiens) (UniProt P30411); test: B2 (h) CEREP ligand profiling; conditions: Compound concentration 10.0 uM
Sequence of B2 bradykinin receptor (Homo sapiens) (P30411 whole entry): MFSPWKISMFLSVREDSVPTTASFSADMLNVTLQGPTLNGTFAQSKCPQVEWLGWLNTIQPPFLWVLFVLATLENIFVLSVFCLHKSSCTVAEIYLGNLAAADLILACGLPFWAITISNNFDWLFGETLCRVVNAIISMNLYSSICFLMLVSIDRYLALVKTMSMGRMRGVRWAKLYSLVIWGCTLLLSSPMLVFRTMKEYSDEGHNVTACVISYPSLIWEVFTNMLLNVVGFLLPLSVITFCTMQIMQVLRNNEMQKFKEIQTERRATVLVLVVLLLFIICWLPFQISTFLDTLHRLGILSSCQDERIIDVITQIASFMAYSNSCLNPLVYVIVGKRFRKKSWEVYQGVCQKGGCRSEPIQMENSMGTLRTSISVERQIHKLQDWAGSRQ

[5] = target: Na+ channel (sodium channel alpha subunit family) (Homo sapiens, UniProt P35498+P35499+Q01118+Q14524+Q15858+Q99250+Q9NY46+Q9UI33+Q9UQD0+Q9Y5Y9); test: Na+ channel CEREP ligand profiling; format: protein assay; conditions: probe veratridine (ligand); compound concentration 10 uM
[6] = target: Histamine H1 receptor (Homo sapiens) (UniProt P35367); test: H1 (h) CEREP ligand profiling; conditions: Compound concentration 10.0 uM
[7] = target: Sodium-dependent noradrenaline transporter (Homo sapiens) (UniProt P23975); test: NE transporter CEREP ligand profiling; conditions: Compound concentration 10.0 uM
Sequence of Sodium-dependent noradrenaline transporter (Homo sapiens) (P23975 whole entry): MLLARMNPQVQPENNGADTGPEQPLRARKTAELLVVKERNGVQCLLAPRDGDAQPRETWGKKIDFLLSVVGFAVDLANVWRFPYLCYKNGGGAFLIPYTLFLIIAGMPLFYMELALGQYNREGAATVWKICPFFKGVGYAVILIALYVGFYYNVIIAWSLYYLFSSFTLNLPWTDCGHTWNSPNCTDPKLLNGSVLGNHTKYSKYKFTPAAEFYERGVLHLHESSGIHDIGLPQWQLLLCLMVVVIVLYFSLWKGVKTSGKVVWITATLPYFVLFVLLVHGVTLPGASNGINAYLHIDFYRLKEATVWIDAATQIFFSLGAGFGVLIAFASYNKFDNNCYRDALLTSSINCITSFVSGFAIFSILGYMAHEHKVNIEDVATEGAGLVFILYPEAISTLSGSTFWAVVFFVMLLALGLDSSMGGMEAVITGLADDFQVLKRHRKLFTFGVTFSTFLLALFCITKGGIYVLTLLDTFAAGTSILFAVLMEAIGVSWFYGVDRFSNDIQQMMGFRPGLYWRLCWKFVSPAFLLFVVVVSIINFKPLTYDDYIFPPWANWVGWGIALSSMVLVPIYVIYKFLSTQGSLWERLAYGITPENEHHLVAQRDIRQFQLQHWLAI

[8] = target: P2Y receptor (Homo sapiens) (UniProt Q9H244+P51582+P47900+P41231+Q15391+Q15077+Q96G91+Q9BPV8); test: P2Y CEREP ligand profiling; format: protein assay; conditions: Compound concentration 10.0 uM
[9] = target: Sodium-dependent dopamine transporter (Homo sapiens) (UniProt Q01959); test: DA transporter(h) CEREP ligand profiling; conditions: Compound concentration 10.0 uM
Sequence of Sodium-dependent dopamine transporter (Homo sapiens) (Q01959 whole entry): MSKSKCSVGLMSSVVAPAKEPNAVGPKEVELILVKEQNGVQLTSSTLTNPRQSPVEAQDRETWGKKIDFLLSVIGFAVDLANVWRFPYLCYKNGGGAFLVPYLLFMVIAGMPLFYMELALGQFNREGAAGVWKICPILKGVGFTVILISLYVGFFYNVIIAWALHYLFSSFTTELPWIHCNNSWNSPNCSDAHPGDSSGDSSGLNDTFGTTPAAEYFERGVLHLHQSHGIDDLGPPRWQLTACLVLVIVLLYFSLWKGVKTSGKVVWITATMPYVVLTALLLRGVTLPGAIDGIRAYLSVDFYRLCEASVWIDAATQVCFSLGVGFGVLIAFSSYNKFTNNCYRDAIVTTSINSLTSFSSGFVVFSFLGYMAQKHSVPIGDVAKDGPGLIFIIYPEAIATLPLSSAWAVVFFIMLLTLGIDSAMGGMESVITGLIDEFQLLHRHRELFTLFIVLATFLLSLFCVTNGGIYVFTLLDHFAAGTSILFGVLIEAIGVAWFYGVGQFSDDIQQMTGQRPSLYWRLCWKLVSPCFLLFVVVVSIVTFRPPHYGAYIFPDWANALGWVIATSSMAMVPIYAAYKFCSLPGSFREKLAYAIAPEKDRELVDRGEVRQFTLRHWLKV

[10] = target: Histamine H2 receptor (Homo sapiens) (UniProt P25021); test: H2 (h) CEREP ligand profiling; conditions: Compound concentration 10.0 uM
Sequence of Histamine H2 receptor (Homo sapiens) (P25021 whole entry): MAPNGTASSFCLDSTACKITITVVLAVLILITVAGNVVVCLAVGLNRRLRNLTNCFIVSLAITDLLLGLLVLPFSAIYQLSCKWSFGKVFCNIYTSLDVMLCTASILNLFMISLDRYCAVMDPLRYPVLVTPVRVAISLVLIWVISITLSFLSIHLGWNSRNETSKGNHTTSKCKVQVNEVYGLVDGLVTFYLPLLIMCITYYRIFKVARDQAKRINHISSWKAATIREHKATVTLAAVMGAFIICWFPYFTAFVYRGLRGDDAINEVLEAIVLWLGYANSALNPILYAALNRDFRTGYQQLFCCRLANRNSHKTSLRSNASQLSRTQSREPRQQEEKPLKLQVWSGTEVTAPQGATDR

[11] = target: GABA-A receptor; anion channel (Homo sapiens) (UniProt P14867+P47870+P18507+P28472+P48169+Q99928+Q9UN88+P34903+O00591+O14764+Q8N1C3+P18505+P78334+P47869+P31644+Q16445); test: Cl- channel CEREP ligand profiling; format: protein-complex assay; conditions: Compound concentration 10.0 uM
[12] = target: Adenosine receptor A2a (Homo sapiens) (UniProt P29274); test: A2A (h) CEREP ligand profiling; conditions: Compound concentration 10.0 uM
[13] = target: Ca2+ channel (voltage-gated L-type calcium channel family) (Homo sapiens, UniProt O60840+Q01668+Q13698+Q13936); test: Ca2+ channel CEREP ligand profiling; format: protein assay; conditions: probe penylalkylamine (ligand); compound concentration 10 uM
[14] = target: 5-hydroxytryptamine receptor 5A (Homo sapiens) (UniProt P47898); test: 5-HT5A (h) CEREP ligand profiling; conditions: Compound concentration 10.0 uM
[15] = target: Neuropeptide Y receptor type 2 (Homo sapiens) (UniProt P49146); test: Y2 (h) CEREP ligand profiling; conditions: Compound concentration 10.0 uM
Sequence of Neuropeptide Y receptor type 2 (Homo sapiens) (P49146 whole entry): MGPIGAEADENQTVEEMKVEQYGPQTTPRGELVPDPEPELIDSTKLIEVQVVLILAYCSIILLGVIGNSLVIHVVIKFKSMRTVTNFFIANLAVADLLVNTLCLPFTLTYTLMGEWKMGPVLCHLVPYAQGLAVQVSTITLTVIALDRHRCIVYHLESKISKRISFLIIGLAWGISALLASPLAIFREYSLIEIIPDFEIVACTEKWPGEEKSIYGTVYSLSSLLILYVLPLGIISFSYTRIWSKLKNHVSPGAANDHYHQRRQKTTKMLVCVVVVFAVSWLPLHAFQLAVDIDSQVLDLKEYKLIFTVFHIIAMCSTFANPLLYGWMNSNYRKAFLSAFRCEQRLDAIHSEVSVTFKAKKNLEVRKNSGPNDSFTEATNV

[16] = target: Adrenergic receptor alpha-1 (Homo sapiens) (UniProt P35348+P25100+P35368); test: alpha1 CEREP ligand profiling; format: protein assay; conditions: Compound concentration 10.0 uM
[17] = target: Substance-P receptor (Homo sapiens) (UniProt P25103); test: NK1 (h) CEREP ligand profiling; conditions: Compound concentration 10.0 uM
[18] = target: T2, D(4) dopamine receptor (Homo sapiens) (UniProt P21917); test: D4.4 (h) CEREP ligand profiling; conditions: Compound concentration 10.0 uM
T2 sequence (whole entry): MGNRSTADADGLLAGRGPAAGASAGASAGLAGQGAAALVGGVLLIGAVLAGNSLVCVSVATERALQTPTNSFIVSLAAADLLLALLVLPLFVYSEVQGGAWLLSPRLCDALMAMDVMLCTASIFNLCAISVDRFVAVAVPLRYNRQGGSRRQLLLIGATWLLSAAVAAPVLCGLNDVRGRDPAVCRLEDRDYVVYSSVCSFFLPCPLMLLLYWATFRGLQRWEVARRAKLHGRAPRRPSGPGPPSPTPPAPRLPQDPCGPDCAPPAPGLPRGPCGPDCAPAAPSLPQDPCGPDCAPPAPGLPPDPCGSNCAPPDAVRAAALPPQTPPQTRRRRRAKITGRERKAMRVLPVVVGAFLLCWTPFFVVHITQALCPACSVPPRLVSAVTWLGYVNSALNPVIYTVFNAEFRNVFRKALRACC

[19] = target: Adenosine receptor A1 (Homo sapiens) (UniProt P30542); test: A1 CEREP ligand profiling; conditions: Compound concentration 10.0 uM
[20] = GABA CEREP ligand profiling; conditions: Compound concentration 10.0 uM
[21] = target: Cannabinoid receptor 1 (Homo sapiens) (UniProt P21554); test: CB1 (h) CEREP ligand profiling; conditions: Compound concentration 10.0 uM
Sequence of Cannabinoid receptor 1 (Homo sapiens) (P21554 whole entry): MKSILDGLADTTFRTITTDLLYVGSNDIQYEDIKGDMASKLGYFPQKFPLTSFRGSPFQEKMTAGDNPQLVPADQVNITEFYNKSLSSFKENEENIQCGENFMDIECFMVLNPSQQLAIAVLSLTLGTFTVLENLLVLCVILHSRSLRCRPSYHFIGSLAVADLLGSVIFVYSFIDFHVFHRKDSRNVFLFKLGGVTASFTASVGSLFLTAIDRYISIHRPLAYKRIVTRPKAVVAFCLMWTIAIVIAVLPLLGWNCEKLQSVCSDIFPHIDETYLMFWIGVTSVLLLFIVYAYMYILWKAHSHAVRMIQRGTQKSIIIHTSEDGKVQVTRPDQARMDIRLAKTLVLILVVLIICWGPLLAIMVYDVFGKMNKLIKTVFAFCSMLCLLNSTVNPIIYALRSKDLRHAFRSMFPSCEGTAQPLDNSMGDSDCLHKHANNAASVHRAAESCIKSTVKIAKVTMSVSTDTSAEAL

[22] = target: Tumor necrosis factor (Homo sapiens) (UniProt P01375); test: TNF-alpha (h) CEREP ligand profiling; conditions: Compound concentration 10.0 uM
Sequence of Tumor necrosis factor (Homo sapiens) (P01375 whole entry): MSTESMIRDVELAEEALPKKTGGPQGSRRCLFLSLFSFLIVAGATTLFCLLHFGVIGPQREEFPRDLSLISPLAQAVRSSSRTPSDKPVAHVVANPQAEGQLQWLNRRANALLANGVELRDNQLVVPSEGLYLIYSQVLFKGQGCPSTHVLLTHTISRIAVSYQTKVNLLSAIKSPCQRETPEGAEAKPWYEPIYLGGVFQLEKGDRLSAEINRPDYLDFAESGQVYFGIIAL

[23] = tested on: Tyrosine-protein kinase ABL1 (Homo sapiens), P00519 [M351T]; conditions: Compound concentration 1000.0 nM
[24] = target: Transient receptor potential cation channel subfamily A member 1 (Homo sapiens, UniProt O75762); test: Fluorometric imaging plate reader (FLIPR)-based Ca2+ assay; parameters: compound concentration 0.03-0.3 uM
[25] = target: Casein kinase I isoform gamma-3 (Homo sapiens) (UniProt Q9Y6M4); conditions: Compound concentration 1000.0 nM
[26] = target: Calcium/calmodulin-dependent protein kinase kinase 1 (Homo sapiens) (UniProt Q8N5S9); conditions: Compound concentration 1000.0 nM
[27] = target: Rho-associated protein kinase 2 (Homo sapiens) (UniProt O75116); conditions: Compound concentration 1000.0 nM
Sequence of Rho-associated protein kinase 2 (Homo sapiens) (O75116 whole entry, looked up): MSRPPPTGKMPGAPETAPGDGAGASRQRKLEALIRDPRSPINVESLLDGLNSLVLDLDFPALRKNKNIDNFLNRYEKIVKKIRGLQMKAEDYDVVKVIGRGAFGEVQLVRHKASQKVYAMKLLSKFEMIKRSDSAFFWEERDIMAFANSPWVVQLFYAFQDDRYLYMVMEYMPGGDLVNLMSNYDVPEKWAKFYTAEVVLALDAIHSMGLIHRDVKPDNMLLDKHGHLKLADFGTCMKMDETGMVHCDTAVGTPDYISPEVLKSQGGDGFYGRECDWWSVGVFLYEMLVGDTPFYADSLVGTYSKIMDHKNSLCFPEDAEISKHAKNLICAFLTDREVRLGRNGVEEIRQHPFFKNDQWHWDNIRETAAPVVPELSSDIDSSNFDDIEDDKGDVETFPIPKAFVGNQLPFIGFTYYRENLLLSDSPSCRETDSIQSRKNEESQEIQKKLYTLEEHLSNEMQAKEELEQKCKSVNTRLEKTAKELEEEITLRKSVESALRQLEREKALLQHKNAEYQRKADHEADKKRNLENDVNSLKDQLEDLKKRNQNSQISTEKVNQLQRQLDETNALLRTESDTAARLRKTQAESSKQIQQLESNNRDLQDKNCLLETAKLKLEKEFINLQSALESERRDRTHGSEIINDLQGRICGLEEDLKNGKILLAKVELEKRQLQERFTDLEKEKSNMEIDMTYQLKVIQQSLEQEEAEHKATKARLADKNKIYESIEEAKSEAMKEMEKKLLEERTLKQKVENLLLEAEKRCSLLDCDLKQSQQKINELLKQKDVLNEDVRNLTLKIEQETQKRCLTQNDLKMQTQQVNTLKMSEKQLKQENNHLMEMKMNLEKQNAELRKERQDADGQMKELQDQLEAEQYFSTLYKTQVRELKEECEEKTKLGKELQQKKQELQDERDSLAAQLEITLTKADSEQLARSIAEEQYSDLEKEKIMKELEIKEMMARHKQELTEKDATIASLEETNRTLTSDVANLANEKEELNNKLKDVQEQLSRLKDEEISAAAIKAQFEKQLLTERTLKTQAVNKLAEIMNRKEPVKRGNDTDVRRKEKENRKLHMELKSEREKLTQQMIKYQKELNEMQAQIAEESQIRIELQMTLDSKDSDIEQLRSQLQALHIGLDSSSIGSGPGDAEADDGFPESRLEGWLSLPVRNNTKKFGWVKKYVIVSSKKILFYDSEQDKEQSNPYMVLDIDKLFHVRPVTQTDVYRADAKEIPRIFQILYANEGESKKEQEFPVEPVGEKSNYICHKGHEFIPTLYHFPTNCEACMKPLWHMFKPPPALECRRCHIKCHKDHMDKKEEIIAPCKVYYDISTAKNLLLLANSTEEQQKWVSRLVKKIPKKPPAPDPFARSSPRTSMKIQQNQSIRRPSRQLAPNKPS

[28] = GPCRScan assay: inhibition of GABA/PBR; parameters: species or system Rattus norvegicus; radioligand conc. used [nm] 0.3 – 2.0, parental cells brain tissue
[29] = target: Serine/threonine-protein kinase 17A (Homo sapiens) (UniProt Q9UEE5); conditions: Compound concentration 1000.0 nM

Structure (SMILES): CCC(=N\O)/C(C)=C/c1ccc(F)cc1 [A-079]
- inhibition [1]: 13%
- inhibition [2]: 5%
- inhibition [3]: 2%
- inhibition [4]: 2%
- inhibition at 10 µM [5]: 17% (not active)
- inhibition [6]: 4%
- inhibition [7]: 32%
- inhibition [8]: 7%
- inhibition [9]: 43%
- inhibition [10]: 3%
- inhibition [11]: 26%
- inhibition [12]: 8%
- inhibition at 10 µM [13]: 3% (not active)
- inhibition [14]: 4%
- inhibition [15]: 13%
- inhibition [16]: 6%
- inhibition [17]: -3%
- inhibition [18]: 4%
- inhibition [19]: 8%
- inhibition [20]: -3%
- inhibition [21]: 3%
- inhibition [22]: 1%

Structure (SMILES): CCC(=N\O)/C(C)=C/c1ccc(F)c(C)c1 [A-226]
- residual activity [23]: 100%
- IC50 [24]: > 100 µM (not active)
- residual activity [25]: 100%
- residual activity [26]: 100%
- residual activity [27]: 100%
- Ki [28]: 3.69 µM
- pKi [28]: 5.44
- residual activity [29]: 73%

From ChEMBL document CHEMBL4507256 (2021)
